Experiments:
cellulase from T. reesei = test: Enzymatic hydrolysis in solution with cellulase from T. reesei, MS-TOF readout; type: biochemical, Trichoderma reesei; conditions: reaction in solution
Experimental: (§1) Enzymatic hydrolysis of the immobilized poly-fluorinated cellobiose 8 (see FIG. 14) was first conducted in situ on the phosphonic acid slide surface. Three commercially available cellulases, Aspergillus niger (A. niger), Trichoderma reesei (T. reesei), and Trichoderma viride (T. viride) were prepared separately at 5 U/mL in a sodium acetate (25 mM) buffer solution (pH 5) and loaded onto the functionalized slide which has been divided into 16 wells using Fast Frame reaction chambers. For comparison, an aliquot of enzyme solution (100 μL) was added to the solution of fluorinated cellobiose (100 μL of 0.5 mM) in eppendorfs to carry out the enzymatic hydrolysis reactions in solution. After the reaction, it was transferred to the empty wells of the same slide. Each well was rinsed separately three times with de-ionized water and the slide was dried again under high vacuum before subjecting to MS-TOF analysis.
(§2) Under MS-TOF analysis, the clean background baseline allowed calculation of the percentage of hydrolyzed components for each sample. As shown in the MS-TOF results in FIG. 20, percentages of hydrolyzed products are calculated from the peak intensities of each spectrum. According to implementations of experimental data shown in FIG. 20, MS-TOF data of enzymatic hydrolysis of poly-fluorinated cellobiose in solution in FIG. 20A and immobilized on PTFE-like ACG slide in FIG. 20B. The control are the same experimental conditions run without enzymes in (a); (b), (c), and (d) are experimental conditions with the cellulase proteins from A. niger (b), T. reesei (c), and T. viride (d).
(§3) Cellulase was prepared (5 U/mL in 25 mM pH 5.05 NaOAc buffer solution). Substrate was also dissolved in NaOAc buffer solution (25 mM, pH 5.05) to give 0.5 mM substrate solution. Add 100 uL cellulase solution to 100 uL substrate solution in eppendorf to have a 2.5 U/mL cellulase solution with 0.25 mM substrate. This solution was incubated in 37° C. for 18 hours. Add 100 μL incubated solution onto the slide loaded in FAST® Frame. Put the slide in dry box to remove the water, and then use high vacuum to remove trace water. 100 μL water was used to rinse each well of the FAST® Frame multi-slide plate to solve and remove the salt of the buffer solution. Remove any residual water on the plate by high vacuum and then analyzed the slide by MALDI-TOF Ultra-Flex II.

cellulase from A. niger = test: Enzymatic hydrolysis in solution with cellulase from A. niger, MS-TOF readout; type: biochemical, Aspergillus niger; conditions: reaction in solution
Experimental: as §1, §2, §3

exoglucanase L3 = test: Enzymatic hydrolysis on the PTFE-like ACG surface with exoglucanase L3, MS-TOF assay; type: biochemical, Clostridium thermocellum; conditions: substrate immobilized on the PTFE-like ACG surface, 24 hours of incubation
Experimental: For each carbohydrate, a specific enzyme was added: (a) is the control run without enzymes, (b) is exoglucanase L3, and (c) is endoglucanase 44A. […]
For comparison and as illustrated according to implementations shown in FIG. 23, substrate 8, 9, and 10 were immobilized on the PTFE-like ACG surface and carried out the cellulase hydrolysis on the surface directly, after the same washing procedures, these slides were subjected to MS-TOF assay. […] The endoglucanase 44A can't accept compound 8 or 9 as a substrate. […] From the above results, the cellotetraose substrate 10 was the best carbohydrate to create array on the PTFE-like ACG surface for the experiments conducted. By using this array, the activity and specificity of unknown cellulase may be examined.
Cellulase was prepared (5 U/mL in 25 mM pH 5.05 NaOAc buffer solution). Substrate was also dissolved in NaOAc buffer solution (25 mM, pH 5.05) to give 0.5 mM substrate solution. Add 50 μL cellulase solution to 50 μL substrate solution onto the glass slide which was loaded in FAST® Frame multi-slide plate to have a 2.5 U/mL cellulase solution with 0.25 mM substrate. […] Put the slide in dry box to remove the water, and then use high vacuum to remove trace water. 100 uL water was used to rinse each well of the FAST® Frame multi-slide plate to solve and remove the salt of the buffer solution. Remove any residual water on the plate by high vacuum and then analyzed the slide by MALDI-TOF Ultra-Flex II.
The genomic DNA of Sulfolobus solfataricus (ATCC 35092) and Clostridium thermocellum (ATCC 27405) were obtained from the ATCC biological resource center. The Sso7d (NCBI accession number: AAK42090) gene fragment was amplified directly from the Sulfolobus solfataricus genome by polymerase chain reaction (PCR) with forward 5′ […] 3′ (SEQ ID NO: 1) and reverse 5′ […] 3′ (SEQ ID NO: 2) primers. […]

cellulase from T. viride = test: Enzymatic hydrolysis in solution with cellulase from T. viride, MS-TOF readout; type: biochemical, Trichoderma viride; conditions: reaction in solution, pH 5
Experimental: as §1, §2, §3

Question: What does the source list for `O=C(NCCCCCO[C@@H]1O[C@H](CO)[C@@H](O[C@@H]2O[C@H](CO)[C@@H](O)[C@H](O)[C@H]2O)[C@H](O)[C@H]1O)OCCCC(F)(F)C(F)(F)C(F)(F)C(F)(F)C(F)(F)C(F)(F)C(F)(F)C(F)(F)F` [Compound 8, [(4,4,5,5,6,6,7,7,8,8,9,9,10,10,11,11,12,12,12-nonadecafluorododecoxycarbonyl-amino)pentyl] ß-D-cellobioside]?
Answer: Biose (un-hydrolyzed cellobiose), percentage of hydrolyzed pattern (cellulase from T. reesei; T. reesei cellulase, pH 5): 7%; F-tail, percentage of hydrolyzed pattern (cellulase from T. reesei; T. reesei cellulase, pH 5): 0%; Glucose, percentage of hydrolyzed pattern (cellulase from T. reesei; T. reesei cellulase, pH 5): 93%; Triose, percentage of hydrolyzed pattern (cellulase from T. reesei; T. reesei cellulase, pH 5): 0/0%; Biose (un-hydrolyzed cellobiose), percentage of hydrolyzed pattern (cellulase from A. niger; A. niger cellulase, pH 5): 64%; F-tail, percentage of hydrolyzed pattern (cellulase from A. niger; A. niger cellulase, pH 5): 0/0%; Glucose, percentage of hydrolyzed pattern (cellulase from A. niger; A. niger cellulase, pH 5): 18%; Triose, percentage of hydrolyzed pattern (cellulase from A. niger; A. niger cellulase, pH 5): 18%; Triose, percentage of hydrolyzed pattern (cellulase from A. niger; A. niger cellulase, pH 5, listed as cellobiose): 8%; Hydrolysis of the substrate by the enzyme from A. niger, one glucose unit at a time (in words) (cellulase from A. niger): very slow reaction rate; Cleavage of the substrate by exoglucanase L3 (in words) (exoglucanase L3): only cleaved a fraction; Biose (un-hydrolyzed cellobiose), percentage of hydrolyzed pattern (cellulase from T. viride): 3%; F-tail, percentage of hydrolyzed pattern (cellulase from T. viride): 38%; Glucose, percentage of hydrolyzed pattern (cellulase from T. viride): 58%; Triose, percentage of hydrolyzed pattern (cellulase from T. viride): 0/0%

Question: Which results are given for `O=C(NCCCCCO[C@@H]1O[C@H](CO)[C@@H](O[C@@H]2O[C@H](CO)[C@@H](O[C@@H]3O[C@H](CO)[C@@H](O)[C@H](O)[C@H]3O)[C@H](O)[C@H]2O)[C@H](O)[C@H]1O)OCCCC(F)(F)C(F)(F)C(F)(F)C(F)(F)C(F)(F)C(F)(F)C(F)(F)C(F)(F)C(F)(F)F` [Compound 9, [(4,4,5,5,6,6,7,7,8,8,9,9,10,10,11,11,12,12,12-nonadecafluorododecoxycarbonyl-amino)pentyl] ß-D-glucopyranosyl-(1→4)-ß-D-glucopyranosyl-(1→4)- -ß-D-glucopyranoside]?
Answer: Hydrolysis of the substrate by the enzyme from T. reesei compared with the enzymes from the other two species (in words) (cellulase from T. reesei): most efficiently; Hydrolysis of the substrate by the enzyme from A. niger, one glucose unit at a time (in words) (cellulase from A. niger): very slow reaction rate; Cleavage of the substrate by exoglucanase L3 (in words) (exoglucanase L3): cleaved the cellobiose quickly

— patent publication US10274488B2, “Glycan arrays on PTFE-like aluminum coated glass slides and related methods” (Academia Sinica, priority 2008, dated 2019)
